Measured values: PMC5116089, “Sulfheme formation during homocysteine S-oxygenation by catalase in cancers and neurodegenerative diseases” (Nature Communications, 2016)

Target: T1, immunocaptured catalase (Homo sapiens, UniProt P04040)
T1 construct: Endogenous catalase activity in cell lysates; endogenous in cells; host or cells: human colorectal cancer cell lines; BE2-M17 human neuroblastoma cells (with or without rotenone)
T1 sequence (P04040 2-527 limits assumed): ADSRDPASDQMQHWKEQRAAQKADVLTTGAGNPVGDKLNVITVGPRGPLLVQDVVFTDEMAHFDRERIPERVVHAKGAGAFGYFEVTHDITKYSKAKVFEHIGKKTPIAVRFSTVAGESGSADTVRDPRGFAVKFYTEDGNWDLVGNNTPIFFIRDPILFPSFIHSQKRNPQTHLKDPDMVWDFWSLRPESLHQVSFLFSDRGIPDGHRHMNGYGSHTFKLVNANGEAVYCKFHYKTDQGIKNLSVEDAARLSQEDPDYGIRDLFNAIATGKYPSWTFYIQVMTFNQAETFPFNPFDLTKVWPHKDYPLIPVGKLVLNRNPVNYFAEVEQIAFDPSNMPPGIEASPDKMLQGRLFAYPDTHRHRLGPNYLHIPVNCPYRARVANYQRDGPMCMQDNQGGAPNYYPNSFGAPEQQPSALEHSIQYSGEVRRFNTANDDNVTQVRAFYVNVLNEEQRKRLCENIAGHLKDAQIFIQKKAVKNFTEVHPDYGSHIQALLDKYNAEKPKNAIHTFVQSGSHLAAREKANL
Assay: Relative specific activity of immunocaptured catalase (SpCAT) after incubation with NaSH
Format: biochemical
Conditions: for effect of NaSH on SpCAT: NaSH 0–50 μM
Method: The relative specific activity (activity and quantity) of catalase in the cell lysates was determined using the kit ab118184 from Abcam (Cambridge, MA). The measurements were performed in duplicate as per the manufacturer's protocol. Briefly, catalase in cell lysates (0.1–0.2 mg cell lysates per assay) was immunocaptured within the wells of the microplate. An assay buffer, which contains H2O2 that reacts with a substrate to generate a luminescent product, was added to each well. The presence of catalase in the reaction mixture reduces the production of light and the light produced in each well is thus inversely proportional to the amount of catalase activity. Then, the quantity of catalase was measured by adding to each well an anti-catalase primary detector antibody. After 1 h incubation at RT, the unbound detector antibody was washed away and an HRP-conjugated labelled secondary antibody specific for the primary detector antibody was added to the wells. After 1 h incubation, the wells were again washed and a 3,3′,5,5′-Tetramethylbenzidine (TMB) substrate solution was added to the wells. A blue colour (absorbance at 600 nm) developed in proportion to the amount of catalase bound. Luminescence and absorbance measurements were performed on an EnSpire Multilabel Reader 2300 (PerkinElmer). To check the effect of NaSH on the relative specific activity of catalase, the immunocaptured catalase was incubated with various concentrations of NaSH (0–50 μM) for 5 min at RT before carefully washing twice each well. The protocol above was then followed to determine activity measurement and catalase quantification.

[Na+].[SH-] [NaSH]
response of SpCAT towards NaSH (BE2-M17 cells versus rotenone-treated BE2-M17 cells): similar
effect of NaSH on SpCAT (HCT-15 cancer cells): inhibited
effect of NaSH on SpCAT (HCT-116 cancer cells): almost unaffected
effect of NaSH on SpCAT (HT-29 Glc−/+ control cell line): almost unaffected
effect of NaSH on SpCAT (MDST8 cancer cells): activated
